{
  "source": "patent US20200297790A1",
  "about": "“HERBAL COMPOSITION FOR PREVENTING OR TREATING BENIGN PROSTATIC HYPERPLASIA DISEASE” (priority 2017, published 2020)",
  "key": {"[1]": {"assay": "Body weight change in testosterone-induced benign prostatic hyperplasia rat model", "format": "in vivo", "conditions": "weighed weekly, five times; extracts 300 mg/kg or finasteride 10 mg/kg orally, 30 days; FIG. 4", "text": "(§1) After being acclimated for one week or longer, male SD rats 9 weeks old (weighing 350 g or less) were divided on the basis of weight into (1) a normal group, (2) a benign prostatic hyperplasia-induced and distilled water-administered group (negative control), (3) benign prostatic hyperplasia-induced and composite herbal extract-administered group ([…]), (4) benign prostatic hyperplasia-induced and single Semen Cuscutae herbal extract-administered group (Comparative Example 1-1), (5) benign prostatic hyperplasia-induced and single Semen nelumbinis herbal extract-administered group (Comparative Example 1-2), (6) benign prostatic hyperplasia-induced and single Taraxaci Herba herbal extract-administered group (Comparative Example 1-3), and (7) benign prostatic hyperplasia-induced and finasteride-administered group (positive control). In order to induce benign prostatic hyperplasia, testosterone (dissolved in cotton seed oil) was subcutaneously injected at a dose of 3 mg/kg once/three days for a total of 10 times. For the control, the same amount of cotton seed oil was subcutaneously injected. The composite herbal extract of Preparation Example 1-6 and the single herbal extracts of Comparative Example 1 were each orally administered at a dose of 300 mg/kg once a day for 30 days. […]"}, "[2]": {"test_system": "testosterone-induced benign prostatic hyperplasia rat model", "assay": "Size of acinus in excised prostate tissue (H&E staining) of testosterone-induced benign prostatic hyperplasia rat model", "format": "in vivo", "conditions": "extracts 300 mg/kg or finasteride 10 mg/kg orally, 30 days", "method": "For the control, the same amount of cotton seed oil was subcutaneously injected. […] For the negative control, oral administration of distilled water alone was carried out. From the starting day of the test, the rats were weighed five times in total at regular intervals of one week. On the next day after the final administration and treatment, the rats were sacrificed with carbon dioxide gas. The prostate glands were excised and weighed. % Inhibition of prostate enlargement was expressed according to the following mathematical formula on the basis of the weight measurements. […] Slides of the stained tissues were observed and photographed with an optical microscope. From the images, sizes of the acini in the prostate glands were measured. The reduction in the size of acinus of each experimental group is expressed as a percentage relative to the size of acinus of the normal group."}, "[3]": {"test_system": "testosterone-induced benign prostatic hyperplasia rat model", "assay": "Inhibition of prostate enlargement (prostate weight) in testosterone-induced benign prostatic hyperplasia rat model", "format": "in vivo", "conditions": "SD rats, testosterone 3 mg/kg s.c., extracts 300 mg/kg or finasteride 10 mg/kg orally once a day for 30 days", "text": "as §1"}, "LNCaP cells": {"test_system": "LNCaP cells", "assay": "Inhibition of testosterone-induced proliferation of prostate epithelial cell line (MTT assay)", "format": "cell-based, human", "conditions": "2 μM testosterone alone, 72 hours", "method": "LNCaP cells, which are the prostate epithelial cells derived from human prostate cancer, were seeded at a density of 1×10^5 cells/well in 24-well plates containing an RPMI medium (Gibco U.S.A) and stabilized overnight. Then, the cells were cultured for 24 hours in a serum-free medium. After removal of the medium, the cells were incubated for 72 hours with 2 μM of testosterone (Tes) alone or in combination with 50, 100, or 200 μg/ml of the composite herbal extract of Preparation Example 1-6 or 4. Thereafter, growth of the cells was evaluated by MTT assay. Cell proliferation data were expressed as percentages of the cell counts relative to that of the Tes-treated group.\nLNCaP cells, which are the prostate epithelial cells derived from human prostate cancer, were seeded at a density of 1×10^5 cells/well in 24-well plates containing an RPMI medium (Gibco, U.S.A) and stabilized overnight. […] Thereafter, growth of the cells was evaluated by MTT assay. Cell proliferation data were expressed as percentages of the cell counts relative to that of the Tes-treated group.\nLNCaP cells, which are the prostate epithelial cells derived from human prostate cancer, were seeded at a density of 1×10^5 cells/well in 24-well plates containing an RPMI medium (Gibco, U.S.A) and stabilized overnight. […] Thereafter, growth of the cells was evaluated by MTT assay. […]"}},
  "data": [
    {"smiles": "CC(C)(C)NC(=O)[C@H]1CC[C@H]2[C@@H]3CC[C@H]4NC(=O)C=C[C@]4(C)[C@H]3CC[C@]12C", "note": "[Finasteride]", "values": [
      {"measurement": "body weight difference among testosterone-treated groups", "setting": "[1]", "value": "significant differences in body weight were not observed"},
      {"measurement": "Reductive effect on size of acinus (%)", "setting": "[2]", "value": 42, "unit": "%"},
      {"measurement": "Size of acinus (%)", "setting": "[2]; percentage relative to normal group", "value": "279 ± 10", "unit": "%"},
      {"measurement": "Prostate weight/body weight", "setting": "[3]", "value": "1.31 ± 0.10", "unit": "g/kg"},
      {"measurement": "% Inhibition of prostate enlargement", "setting": "[3]; vs negative control", "value": 43, "unit": "%"}
    ]},
    {"smiles": "C[C@]12CC[C@H]3[C@@H](CCC4=CC(=O)CC[C@@]43C)[C@@H]1CC[C@@H]2O", "note": "[testosterone]", "values": [
      {"measurement": "growth of prostate epithelial cells when treated with testosterone", "setting": "LNCaP cells", "value": "about 62.5%"}
    ]}
  ]
}
